In article PMC3827683 (Journal of the American Chemical Society, 2013):

How the values were obtained:
Experiment in all cases: direct UV assay of deamination
Type in all cases: biochemical
Conditions in all cases: 20 mM HEPES pH 7.5, 30 °C
Avi5431 [1] = target: T1, Avi5431 (Gillisella ampelina, UniProt B9K107)
T1 sequence (B9K107 1-466): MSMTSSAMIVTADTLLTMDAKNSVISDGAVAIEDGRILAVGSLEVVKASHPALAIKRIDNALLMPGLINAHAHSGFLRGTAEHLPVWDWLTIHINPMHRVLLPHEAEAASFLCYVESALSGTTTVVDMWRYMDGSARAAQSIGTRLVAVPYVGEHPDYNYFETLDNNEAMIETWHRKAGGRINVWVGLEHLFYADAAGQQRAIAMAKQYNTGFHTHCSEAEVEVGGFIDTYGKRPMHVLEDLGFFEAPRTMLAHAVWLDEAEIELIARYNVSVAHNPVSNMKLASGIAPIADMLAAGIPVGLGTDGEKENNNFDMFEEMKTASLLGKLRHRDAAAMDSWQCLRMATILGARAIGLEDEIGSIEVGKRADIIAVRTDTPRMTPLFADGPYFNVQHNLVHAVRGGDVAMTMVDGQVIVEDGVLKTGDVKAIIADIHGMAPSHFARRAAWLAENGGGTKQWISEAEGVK

Avi5431 [2] = target: T1, Avi5431; remark: listed apart in the source
Tvn0515 = target: T2, Tvn0515 (Thermoplasma volcanium, UniProt Q97BE1)
T2 sequence (Q97BE1 1-418): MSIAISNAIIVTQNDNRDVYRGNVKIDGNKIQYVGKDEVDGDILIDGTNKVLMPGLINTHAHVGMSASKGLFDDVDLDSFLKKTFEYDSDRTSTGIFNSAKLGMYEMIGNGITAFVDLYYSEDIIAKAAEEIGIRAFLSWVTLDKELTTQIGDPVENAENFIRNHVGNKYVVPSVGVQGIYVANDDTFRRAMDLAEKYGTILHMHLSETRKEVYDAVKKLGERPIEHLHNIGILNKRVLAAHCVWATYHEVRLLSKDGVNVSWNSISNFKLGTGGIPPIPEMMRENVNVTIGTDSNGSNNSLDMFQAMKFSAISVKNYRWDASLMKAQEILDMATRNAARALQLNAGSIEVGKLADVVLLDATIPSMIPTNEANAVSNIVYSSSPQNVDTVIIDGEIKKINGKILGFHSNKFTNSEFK

## Nc1nc(O)nc2[nH]cnc12 [2-oxoadenine]
Avi5431 [1]
  direct UV assay of deamination (294 nm): Avi5431 deaminated two adenine related compounds, 8-oxoadenine and 2-oxoadenine

## Nc1ncnc2[nH]c(=O)[nH]c12 [8-oxoadenine]
Avi5431 [2]
  direct UV assay of deamination (272 nm): Avi5431 deaminated two adenine related compounds, 8-oxoadenine and 2-oxoadenine

## Nc1ncnc2c1ncn2[C@@H]1O[C@H](CSCC[C@H](N)C(=O)O)[C@@H](O)[C@H]1O [SAH]
Tvn0515
  Km: Tvn0515 (sg-11) deaminates only SAH
